{"source": "patent US20190314379A1", "about": "“METHODS OF USING CANNABINOID CB2 RECEPTOR AGONIST COMPOSITIONS TO SUPPRESS AND PREVENT OPIOID TOLERANCE AND WITHDRAWAL IN A SUBJECT” (Indiana University Research and Technology Corporation, priority 2018, published 2019)", "key": {"mouse CB2 receptors [1]": {"target": "T1, mouse CB2 receptors (Mus musculus, UniProt P47936)", "T1 construct": "expressed in transfected cells", "T1 sequence (P47936 whole entry)": "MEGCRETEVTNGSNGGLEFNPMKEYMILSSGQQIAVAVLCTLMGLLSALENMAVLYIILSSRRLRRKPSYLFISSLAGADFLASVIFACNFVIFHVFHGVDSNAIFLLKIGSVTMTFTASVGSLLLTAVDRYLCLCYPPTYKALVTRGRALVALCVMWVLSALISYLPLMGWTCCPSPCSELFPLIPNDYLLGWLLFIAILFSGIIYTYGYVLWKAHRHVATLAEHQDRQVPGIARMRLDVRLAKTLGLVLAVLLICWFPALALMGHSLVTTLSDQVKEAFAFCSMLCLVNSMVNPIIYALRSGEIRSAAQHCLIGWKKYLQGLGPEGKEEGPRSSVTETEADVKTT", "experiment": "On-cell western for receptor internalization, HEK mCB2", "type": "cell-based"}, "mouse CB2 receptors [2]": {"target": "T1, mouse CB2 receptors", "experiment": "Forskolin-stimulated cAMP accumulation (cyclase), HEK mCB2", "type": "cell-based", "settings": "for Emax: read-out: Cyclase Emax"}, "mouse CB2 receptors [3]": {"target": "T1, mouse CB2 receptors", "experiment": "Myo-inositol phosphate-1 (IP1) accumulation, HEK mCB2", "type": "cell-based", "settings": "via mouse CB2"}, "[4]": {"system": "paclitaxel-induced cold allodynia", "experiment": "Paclitaxel-induced cold allodynia (acetone)", "type": "in vivo, mouse", "settings": "for cold allodynia, chronic phase 1 treatment: 3 mg/kg per day i.p.×12 days", "experimental": "In all studies, the experimenter was blinded to the treatment condition, and mice were randomly assigned to experimental conditions. Paclitaxel (4 mg/kg i.p.) was administered four times on alternate days (cumulative dose, 16 mg/kg i.p.) to induce neuropathic pain as described previously by our group (Deng et al., 2015). Control mice received an equal volume of cremophor-vehicle. Development of paclitaxel-induced allodynia was assessed on day 0, 4, 7, 11, and 14.\nEffects of pharmacologic manipulations were assessed at 30 minutes after drug administration during the maintenance phase of paclitaxel-induced neuropathy (i.e., beginning day 18-20 after initial paclitaxel injection).\nIn experiments 2 and 3, pharmacologic manipulations were performed once daily for 12 consecutive days in each of the two phases of chronic treatment. Four days separated phase 1 and phase 2 chronic dosing in all studies comprising two phases of chronic dosing. Experiments 2 and 3 were performed concurrently using overlapping cohorts that were tested with a single vehicle (phase 1), vehicle (phase 2) group.\nWe then assessed the antiallodynic efficacy of chronic systemic administration of vehicle or morphine (10 mg/kg per day i.p.×12 days) administered during phase 2 in the same animals. Responsiveness to mechanical and cold stimulation was evaluated on treatment days 1, 4, 8, and 12 during phase 1 and on treatment days 16, 19, 23, and 27 during phase 2 (i.e., phase 2 started on day 16).\nIn experiment 4, we evaluated the impact of coadministration of morphine (10 mg/kg i.p.×12 days) with a submaximal dose of LY 2828360 (0.1 mg/kg per day i.p.×12 days) in WT and CB2 KO mice.\nResponse time (seconds) spent attending to (i.e., elevating, licking, biting, or shaking) the paw stimulated with acetone (Sigma-Aldrich) was measured in triplicate for each paw to assess cold allodynia as previously published. An acetone bubble (approximately 5 to 6 p.1) formed at the end of a blunt 1-ml syringe hub was gently applied to the plantar surface of the hind paw. Care was taken not to apply mechanical stimulation to the hind paw with the syringe itself. The total time the animal spent attending to the acetone-stimulated paw (i.e., elevation, shaking, or licking) was recorded over 1 minute after acetone application. Acetone was applied three times to each paw with a 3-minute interval between applications. Values for each animal were calculated as the mean of six determinations of acetone responsiveness derived from each mouse."}, "[5]": {"system": "naloxone-precipitated opioid withdrawal", "experiment": "Naloxone-precipitated opioid withdrawal in paclitaxel-treated mice", "type": "in vivo, mouse", "experimental": "Alter the last injection of morphine (on day 28 for two-phase treatments, on day 13 for coadministration treatment), we challenged WT or CB2KO mice from experiments 2, 3, and 4 with vehicle, followed 30 minutes later by naloxone (5 mg/kg i.p.) to precipitate opioid receptor-mediated withdrawal. Mice were video-recorded for subsequent scoring of withdrawal-like behaviors for a 30-minute interval after challenge with vehicle or naloxone.\nMice were video-taped, and the number of jumps was scored in 5-minute intervals for a total observation period of 30 minutes after challenge with either saline or naloxone (5 mg/kg i.p.)."}, "human CB2 [6]": {"target": "T2, human CB2 (Homo sapiens, UniProt P34972)", "T2 sequence (P34972 whole entry)": "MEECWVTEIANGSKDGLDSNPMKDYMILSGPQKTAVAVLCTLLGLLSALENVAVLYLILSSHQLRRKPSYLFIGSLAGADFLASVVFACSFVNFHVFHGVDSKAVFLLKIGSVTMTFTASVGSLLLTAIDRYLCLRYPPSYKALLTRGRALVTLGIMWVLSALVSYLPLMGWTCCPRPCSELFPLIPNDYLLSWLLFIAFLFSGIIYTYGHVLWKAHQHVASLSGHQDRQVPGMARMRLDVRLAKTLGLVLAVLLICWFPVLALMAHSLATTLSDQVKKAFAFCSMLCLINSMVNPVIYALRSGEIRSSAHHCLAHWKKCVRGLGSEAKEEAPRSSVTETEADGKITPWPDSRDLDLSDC", "settings": "at 20 nM; cited from earlier work"}, "CB1": {"target": "CB1 (Homo sapiens, UniProt P21554)", "sequence (P21554 whole entry, species assumed)": "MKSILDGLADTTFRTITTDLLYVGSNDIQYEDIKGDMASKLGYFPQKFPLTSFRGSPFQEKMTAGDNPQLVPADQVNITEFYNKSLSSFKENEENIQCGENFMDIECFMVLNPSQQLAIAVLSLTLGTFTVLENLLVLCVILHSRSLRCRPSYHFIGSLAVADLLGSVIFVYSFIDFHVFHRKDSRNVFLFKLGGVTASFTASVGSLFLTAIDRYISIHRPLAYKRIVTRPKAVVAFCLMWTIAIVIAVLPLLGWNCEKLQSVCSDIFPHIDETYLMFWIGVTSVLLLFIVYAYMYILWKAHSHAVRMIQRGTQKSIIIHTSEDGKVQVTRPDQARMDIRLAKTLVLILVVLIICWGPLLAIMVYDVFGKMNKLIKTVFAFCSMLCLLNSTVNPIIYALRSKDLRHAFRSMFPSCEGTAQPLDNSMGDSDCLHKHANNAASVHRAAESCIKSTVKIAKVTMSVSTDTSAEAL", "settings": "at 100 μM; cited from earlier work"}, "[7]": {"settings": "in vivo; cited from earlier work"}, "[8]": {"system": "joint pain induced by intra-articular monoiodoacetic acid", "settings": "0.3 mg/kg p.o.; cited from earlier work"}, "human CB2 [9]": {"target": "T2, human CB2", "experiment": "On-cell western for receptor internalization, HEK hCB2", "type": "cell-based", "set-up": "expressed in transfected cells"}, "human CB2 [10]": {"target": "T2, human CB2", "experiment": "Forskolin-stimulated cAMP accumulation (cyclase), HEK hCB2", "type": "cell-based", "set-up": "expressed in transfected cells; time of inhibition of forskolin-stimulated cAMP accumulation: dose or concentration left out as unconfirmed"}, "human CB2 [11]": {"target": "T2, human CB2", "experiment": "Myo-inositol phosphate-1 (IP1) accumulation, HEK hCB2", "type": "cell-based", "set-up": "expressed in transfected cells", "settings": "via human CB2"}, "[12]": {"settings": "WT mice, 3 mg/kg per day i.p.×12 days after phase 1 morphine"}, "[13]": {"settings": "paclitaxel-treated WT mice, naloxone 5 mg/kg i.p."}}, "note": "Entries after “also recorded” stand apart in the source; their conditions may differ.", "data": [{"smiles": "Cc1nc(N2CCN(C)CC2)c2nc(-c3ccccc3Cl)n(C3CCOCC3)c2n1", "note": "[LY2828360, 8-(2-chlorophenyl)-2-methyl-6-(4-methylpiperazin-1-yl)-9-(tetrahydro-2H-pyran-4-yl)-9H-purine]", "values": [{"measurement": "receptor internalization", "setting": "mouse CB2 receptors [1]; HEK mCB2", "result": "failed to internalize the receptor; also recorded: less potent and efficacious"}, {"measurement": "EC50", "setting": "mouse CB2 receptors [1]; mouse CB2, 90 mins incubation, read-out: Internalization EC50", "result": 30.7, "unit": "nM"}, {"measurement": "Emax", "setting": "mouse CB2 receptors [1]; mouse CB2, 90 mins incubation, read-out: Internalization Emax", "result": 19.1, "unit": "%"}, {"measurement": "forskolin-stimulated cAMP after PTX treatment", "setting": "mouse CB2 receptors [2]; mCB2, 1 μM, PTX 300 ng/ml overnight", "result": "failed to affect cyclase levels at all time points"}, {"measurement": "time of efficacious inhibition of forskolin-stimulated adenylyl cyclase", "setting": "mouse CB2 receptors [2]; mCB2, 1 μM, time course", "result": 30, "unit": "min"}, {"measurement": "inhibition of forskolin-stimulated cAMP accumulation in presence of SR144528", "setting": "mouse CB2 receptors [2]; mCB2, 30-minute incubation, 1 μM SR144528 (SR2)", "result": "completely blocked"}, {"measurement": "inhibition of forskolin-stimulated cAMP accumulation, concentration response", "setting": "mouse CB2 receptors [2]; mCB2, 5 minutes", "result": "had no effect"}, {"measurement": "inhibition of forskolin-stimulated cAMP accumulation, concentration response", "setting": "mouse CB2 receptors [2]; mCB2, 30 minutes", "result": "potent, efficacious, and CB2 receptor mediated"}, {"measurement": "Emax", "setting": "mouse CB2 receptors [2]; mouse CB2, 05 mins incubation", "result": 18.9, "unit": "%"}, {"measurement": "EC50", "setting": "mouse CB2 receptors [2]; mouse CB2, 30 mins incubation, read-out: Cyclase EC50", "result": 13.6, "unit": "nM"}, {"measurement": "Emax", "setting": "mouse CB2 receptors [2]; mouse CB2, 30 mins incubation", "result": 53.4, "unit": "%"}, {"measurement": "IP1 accumulation", "setting": "mouse CB2 receptors [3]", "result": "did not affect IP1 accumulation"}, {"measurement": "time for responsiveness to cold stimulation to return to baseline", "setting": "[4]; 3 mg/kg i.p. acute", "result": 3, "unit": "days"}, {"measurement": "cold allodynia, chronic phase 1 treatment", "setting": "[4]; CB2KO mice", "result": "failed to suppress"}, {"measurement": "cold responsiveness, phase 2 treatment of morphine-tolerant mice", "setting": "[4]; CB2KO mice, 3 mg/kg per day i.p.×12 days after phase 1 morphine", "result": "did not alter responsiveness to mechanical or cold stimulation"}, {"measurement": "cold allodynia, coadministration with morphine", "setting": "[4]; CB2KO mice, LY2828360 0.1 mg/kg with morphine 10 mg/kg per day×12 days", "result": "sustained antiallodynic efficacy was absent"}, {"measurement": "development of tolerance to antiallodynic effect of phase 2 morphine, cold", "setting": "[4]; CB2KO mice, LY2828360 phase 1, morphine phase 2", "result": "did not block the development of morphine tolerance"}, {"measurement": "paclitaxel-induced cold allodynia, high dose", "setting": "[4]; WT mice, 3 mg/kg i.p. acute", "result": "fully reversed paclitaxel-induced allodynia and normalized responses to pre-paclitaxel baseline levels"}, {"measurement": "cold allodynia, chronic phase 1 treatment", "setting": "[4]; WT mice", "result": "markedly suppressed paclitaxel-induced mechanical and cold allodynia throughout the observation interval"}, {"measurement": "cold allodynia, phase 2 treatment of morphine-tolerant mice", "setting": "[4]; [12]", "result": "fully reversed paclitaxel-induced allodynia and normalized responsiveness to pre-paclitaxel baseline levels"}, {"measurement": "tolerance to phase 2 treatment, cold", "setting": "[4]; [12]", "result": "tolerance did not develop"}, {"measurement": "cold allodynia, coadministration with morphine", "setting": "[4]; WT mice, LY2828360 0.1 mg/kg per day i.p.×12 days with morphine 10 mg/kg per day×12 days", "result": "normalized cold responsiveness on days 1 and 4"}, {"measurement": "development of morphine tolerance under coadministration, cold", "setting": "[4]; WT mice, LY2828360 0.1 mg/kg with morphine 10 mg/kg per day×12 days", "result": "morphine tolerance failed to develop"}, {"measurement": "development of tolerance to antiallodynic effect of phase 2 morphine, cold", "setting": "[4]; WT mice, LY2828360 3 mg/kg per day×12 days phase 1, morphine 10 mg/kg×12 days phase 2", "result": "prevented the development of morphine tolerance"}, {"measurement": "paclitaxel-induced cold allodynia, acute dose response", "setting": "[4]; WT mice, acute systemic (i.p.), dose-dependent", "result": "suppressed"}, {"measurement": "cold allodynia at low doses vs cremophor-vehicle controls", "setting": "[4]; WT mice, doses lower than 0.3 mg/kg i.p.", "result": "neuropathic pain was prominent"}, {"measurement": "stability of antiallodynic efficacy (tolerance), cold", "setting": "[4]; WT mice, phase 1, 3 mg/kg per day i.p.×12 days", "result": "stable throughout phase 1 treatment"}, {"measurement": "naloxone-precipitated jumps, WT compared with CB2KO mice", "setting": "[5]; coadministration of LY2828360 with morphine, P=0.055", "result": "trended to produce a lower number of naloxone-precipitated jumps"}, {"measurement": "number of jumps, LY (1)-Mor (2) vs Veh (1)-Mor (2)", "setting": "[5]; paclitaxel-treated CB2KO mice", "result": "did not differ"}, {"measurement": "number of jumps, LY (1)-Mor (2) vs Veh (1)-Veh (2)", "setting": "[5]; paclitaxel-treated CB2KO mice", "result": "trended higher"}, {"measurement": "number of jumps, LY (1)-Mor (2) vs Veh (1)-Mor (2)", "setting": "[5]; [13]", "result": "did not differ"}, {"measurement": "number of naloxone-precipitated jumps, LY (1)-Mor (2) vs Veh (1)-Veh (2)", "setting": "[5]; [13]", "result": "did not differ"}, {"measurement": "maximal stimulation of CB2", "setting": "human CB2 [6]", "result": "approximately 87%"}, {"measurement": "maximal stimulation of CB1", "setting": "CB1", "result": 15, "unit": "%"}, {"measurement": "central nervous system (CNS) penetration", "setting": "[7]", "result": "good"}, {"measurement": "efficacy compared with diclofenac", "setting": "[8]", "result": "equivalent efficacy"}, {"measurement": "reversal of pain, incapacitance testing", "setting": "[8]", "result": "dose-related reversal of pain"}, {"measurement": "receptor internalization", "setting": "human CB2 [9]; HEK hCB2", "result": "failed to internalize the receptor"}, {"measurement": "Emax", "setting": "human CB2 [9]; human CB2, 90 mins incubation, read-out: Internalization Emax", "result": 10.2, "unit": "%"}, {"measurement": "inhibition of forskolin-stimulated cAMP accumulation", "setting": "human CB2 [10]; hCB2, 5 minutes of treatment", "result": "had no effect"}, {"measurement": "inhibition of forskolin-stimulated cAMP accumulation", "setting": "human CB2 [10]; hCB2, 35 minutes", "result": "potent and efficacious agonist"}, {"measurement": "inhibition of forskolin-stimulated cAMP accumulation in presence of SR144528", "setting": "human CB2 [10]; hCB2, 35 minutes", "result": "completely blocked"}, {"measurement": "time of inhibition of forskolin-stimulated cAMP accumulation", "setting": "human CB2 [10]; hCB2, time course", "result": 35, "unit": "min"}, {"measurement": "inhibition of cAMP accumulation after PTX pretreatment", "setting": "human CB2 [10]; hCB2, time course, PTX", "result": "abolished this effect"}, {"measurement": "Emax", "setting": "human CB2 [10]; human CB2, 35 mins incubation, read-out: Cyclase Emax", "result": 42.8, "unit": "%"}, {"measurement": "IP1 accumulation", "setting": "human CB2 [11]", "result": "did not affect IP1 accumulation"}]}]}
